Experimental data published in US20220281848A1, “PYRAZOLE-SUBSTITUTED PYRROLIDINONES AS HERBICIDES” (FMC Corporation, priority 2019, published 2022).

What was measured:
Assay type in all cases: in vivo
Settings in all cases: 19 to 21 days
[1] = tested on: corn (Zea mays); assay: Test C preemergence, corn
From the text: (§1) Seeds of plant species selected from corn (Zea mays), soybean (Glycine max), velvetleaf (Abutilon theophrasti), palmer pigweed (Amaranthus palmeri), waterhemp (common waterhemp, Amaranthus rudis), surinam grass (Brachiaria decumbens), large (Lg) crabgrass (Digitaria sanguinalis), fall panicum (Panicum dichotomiflorum), giant foxtail (Setaria faberi), ragweed (common ragweed, Ambrosia elatior), barnyardgrass (Echinochloa crus-galli), E. Black Nightshade (Solanum ptycanthum), and horseweed (Conyza canadensis), were planted into a silt loam soil and treated preemergence with test chemicals formulated in a non-phytotoxic solvent mixture which included a surfactant.
(§2) Treated plants and controls were maintained in a greenhouse for 19 to 21 days, after which time all species were compared to controls and visually evaluated. Plant response ratings, summarized in Table C, are based on a scale of 0 to 100 where 0 is no effect and 100 is complete control.

[2] = tested on: E. Black Nightshade (Solanum ptycanthum); assay: Test C preemergence, E. Black Nightshade
From the text: as §1, §2

[3] = tested on: large (Lg) crabgrass (Digitaria sanguinalis); assay: Test C preemergence, large crabgrass
From the text: as §1, §2

[4] = tested on: palmer pigweed (Amaranthus palmeri); assay: Test C preemergence, palmer pigweed
From the text: as §1, §2

[5] = tested on: corn (Zea mays); assay: Test B preemergence, corn
From the text: (§3) Seeds of plant species selected from blackgrass (Alopecurus myosuroides), Italian ryegrass (Lolium multiflorum), wheat, winter (winter wheat, Triticum aestivum), corn (Zea mays), large (Lg) crabgrass (Digitaria sanguinalis), giant foxtail (Setaria faberi), johnsongrass (Sorghum halepense), ragweed (common ragweed, Ambrosia elatior), soybean (Glycine max), barnyardgrass (Echinochloa crus-galli), waterhemp (common waterhemp, Amaranthus rudis), palmer pigweed (Amaranthus palmeri), and surinam grass (Brachiaria decumbens), were planted into a silt loam soil and treated preemergence with test chemicals formulated in a non-phytotoxic solvent mixture which included a surfactant.
(§4) Treated plants and controls were maintained in a greenhouse for 19 to 21 days, after which time all species were compared to controls and visually evaluated. Plant response ratings, summarized in Table B, are based on a scale of 0 to 100 where 0 is no effect and 100 is complete control.

[6] = tested on: horseweed (Conyza canadensis); assay: Test C preemergence, horseweed
From the text: as §1, §2

[7] = tested on: large (Lg) crabgrass (Digitaria sanguinalis); assay: Test B preemergence, large crabgrass
From the text: as §3, §4

[8] = tested on: waterhemp (common waterhemp, Amaranthus rudis); assay: Test B preemergence, waterhemp
From the text: as §3, §4

[9] = tested on: Italian ryegrass (Lolium multiflorum); assay: Test B preemergence, Italian ryegrass
From the text: as §3, §4

In the case of `CN1C[C@H](c2cc(C(F)(F)F)n(C)n2)[C@@H](C(=O)Nc2cccc(F)c2F)C1=O` [Compound 13, (3S,4R)—N-(2,3-difluorophenyl)-1-methyl-4-[1-methyl-5-(trifluoromethyl)-1H-pyrazol-3-yl]-2-oxo-3-pyrrolidinecarboxamide], the “Plant response rating (0 no effect, 100 complete control) Corn” value ([1]; 4 g ai/ha Preemergence) is reported as 0, the “Plant response rating (0 no effect, 100 complete control) Corn” value ([1]; 8 g ai/ha Preemergence) is reported as 0 and the “Plant response rating (0 no effect, 100 complete control) Corn” value ([1]; 16 g ai/ha Preemergence) is reported as 0. For the same molecule, the “Plant response rating (0 no effect, 100 complete control) Corn” value ([1]; 31 g ai/ha Preemergence) was 0, the “Plant response rating (0 no effect, 100 complete control) Corn” value ([1]; 62 g ai/ha Preemergence) was 0 and the “Plant response rating (0 no effect, 100 complete control) Corn” value ([1]; 125 g ai/ha Preemergence) was 15. The “Plant response rating (0 no effect, 100 complete control) Nightshade” value ([2]; 4 g ai/ha Preemergence) was 0, the “Plant response rating (0 no effect, 100 complete control) Nightshade” value ([2]; 8 g ai/ha Preemergence) was 0 and the “Plant response rating (0 no effect, 100 complete control) Nightshade” value ([2]; 16 g ai/ha Preemergence) was 0. The “Plant response rating (0 no effect, 100 complete control) Nightshade” value ([2]; 31 g ai/ha Preemergence) was 0, the “Plant response rating (0 no effect, 100 complete control) Nightshade” value ([2]; 62 g ai/ha Preemergence) was 0 and the “Plant response rating (0 no effect, 100 complete control) Nightshade” value ([2]; 125 g ai/ha Preemergence) was 63. For the same molecule, the “Plant response rating (0 no effect, 100 complete control) Crabgrass, Large” value ([3]; 4 g ai/ha Preemergence) was 70, the “Plant response rating (0 no effect, 100 complete control) Crabgrass, Large” value ([3]; 8 g ai/ha Preemergence) was 89 and the “Plant response rating (0 no effect, 100 complete control) Crabgrass, Large” value ([3]; 16 g ai/ha Preemergence) was 98. For the same molecule, the “Plant response rating (0 no effect, 100 complete control) Crabgrass, Large” value ([3]; 31 g ai/ha Preemergence) was 98, the “Plant response rating (0 no effect, 100 complete control) Crabgrass, Large” value ([3]; 62 g ai/ha Preemergence) was 98 and the “Plant response rating (0 no effect, 100 complete control) Crabgrass, Large” value ([3]; 125 g ai/ha Preemergence) was 98. The “Plant response rating (0 no effect, 100 complete control) Pigweed, Palmer” value ([4]; 4 g ai/ha Preemergence) was 0, the “Plant response rating (0 no effect, 100 complete control) Pigweed, Palmer” value ([4]; 8 g ai/ha Preemergence) was 0 and the “Plant response rating (0 no effect, 100 complete control) Pigweed, Palmer” value ([4]; 16 g ai/ha Preemergence) was 0. The “Plant response rating (0 no effect, 100 complete control) Pigweed, Palmer” value ([4]; 31 g ai/ha Preemergence) was 0, the “Plant response rating (0 no effect, 100 complete control) Pigweed, Palmer” value ([4]; 62 g ai/ha Preemergence) was 0 and the “Plant response rating (0 no effect, 100 complete control) Pigweed, Palmer” value ([4]; 125 g ai/ha Preemergence) was 28. The “Plant response rating (0 no effect, 100 complete control) Corn” value ([5]; 16 g ai/ha Preemergence) was 3, the “Plant response rating (0 no effect, 100 complete control) Corn” value ([5]; 31 g ai/ha Preemergence) was 5 and the “Plant response rating (0 no effect, 100 complete control) Corn” value ([5]; 62 g ai/ha Preemergence) was 13. For the same molecule, the “Plant response rating (0 no effect, 100 complete control) Corn” value ([5]; 125 g ai/ha Preemergence) was 48, the “Plant response rating (0 no effect, 100 complete control) Horseweed” value ([6]; 4 g ai/ha Preemergence) was 0 and the “Plant response rating (0 no effect, 100 complete control) Horseweed” value ([6]; 8 g ai/ha Preemergence) was 0. The “Plant response rating (0 no effect, 100 complete control) Horseweed” value ([6]; 16 g ai/ha Preemergence) was 0, the “Plant response rating (0 no effect, 100 complete control) Horseweed” value ([6]; 31 g ai/ha Preemergence) was 30 and the “Plant response rating (0 no effect, 100 complete control) Horseweed” value ([6]; 62 g ai/ha Preemergence) was 45. For the same molecule, the “Plant response rating (0 no effect, 100 complete control) Horseweed” value ([6]; 125 g ai/ha Preemergence) was 65, the “Plant response rating (0 no effect, 100 complete control) Crabgrass, Large” value ([7]; 16 g ai/ha Preemergence) was 100 and the “Plant response rating (0 no effect, 100 complete control) Crabgrass, Large” value ([7]; 31 g ai/ha Preemergence) was 100. For the same molecule, the “Plant response rating (0 no effect, 100 complete control) Crabgrass, Large” value ([7]; 62 g ai/ha Preemergence) was 100, the “Plant response rating (0 no effect, 100 complete control) Crabgrass, Large” value ([7]; 125 g ai/ha Preemergence) was 100 and the “Plant response rating (0 no effect, 100 complete control) Waterhemp” value ([8]; 16 g ai/ha Preemergence) was 0. For the same molecule, the “Plant response rating (0 no effect, 100 complete control) Waterhemp” value ([8]; 31 g ai/ha Preemergence) was 0, the “Plant response rating (0 no effect, 100 complete control) Waterhemp” value ([8]; 62 g ai/ha Preemergence) was 0 and the “Plant response rating (0 no effect, 100 complete control) Waterhemp” value ([8]; 125 g ai/ha Preemergence) was 15. For the same molecule, the “Plant response rating (0 no effect, 100 complete control) Ryegrass, Italian” value ([9]; 16 g ai/ha Preemergence) was 0, the “Plant response rating (0 no effect, 100 complete control) Ryegrass, Italian” value ([9]; 31 g ai/ha Preemergence) was 25 and the “Plant response rating (0 no effect, 100 complete control) Ryegrass, Italian” value ([9]; 62 g ai/ha Preemergence) was 65. For the same molecule, the “Plant response rating (0 no effect, 100 complete control) Ryegrass, Italian” value ([9]; 125 g ai/ha Preemergence) was 92.
